From US9303019B2, “Amino-pyrroline derivatives, and use thereof in the prevention and/or treatment of metabolic syndrome” (UNIVERSITE DE STRASBOURG, priority 2012, dated 2016)
Where a name gives a salt, the structure may show the parent alone.

Legend:
[1] = tested on: α2-adrenergic receptors; experiment: Binding assay of the α2-adrenergic receptors on CHO cell membranes with [3H]RX821002; design: species or system human; conditions: CHO cells
Procedure: These membranes (30 μg proteins/ml for CHO-hα2A and CHO-hα2B, 100 μg protein/ml for CHO-hα2C) were incubated for 60 min at ambient temperature in binding buffer (33 mM Tris-HCl, 1 mM EDTA, pH 7.5) in a final volume of 500 μL containing 0.8 or 1 or 2 nM [^3H]RX821002 respectively for the adrenergic receptors hα2A, hα2B and hα2C.
Incubation was halted by rapid vacuum filtration through GF/C glass fibre filters followed by three successive washings in ice-cold binding buffer.
Non-specific binding was determined using 10 μM phentolamine.
(§1) The competitive assays were analyzed by non-linear regression using the GraphPad programme.
(§2) Ki values were determined using the method described by Cheng and Prussof (Cheng, Y. C.; Prusoff, W. H. Relationship between the Inhibition Constant (Ki) and the Concentration of Inhibitor which causes 50 percent Inhibition (I50) of an Enzymatic Reaction. Biochem. Pharmacol. 1973, 22, 3099-3108).

[2] = molecular target: I1 receptor (Homo sapiens, UniProt Q9Y2I1); experiment: Specific binding assay of the I1 receptor on human platelets with [125I]LNP 911
Procedure: Binding assays were performed at 37° C. using [^125I]LNP 911 as radioligand following the general procedure described but adapted to washed whole platelets (Greney, H.; Urosevic, D.; Schann, S.; Dupuy, L.; Bruban, V.; Ehrhardt, J,-D.; Bousquet, P.; Dontenwill, M. [^125I]2-(2-Chloro-4-iodo-phenylamino)-5-methyl-pyrroline (LNP911), a High-Affinity Radioligand Selective for I1 Imidazoline Receptors. Mol. Pharmacol. 2002, 62, 181-191).
Incubation was initiated through the addition of 900 to 950 μl of platelet suspension at a concentration of 500000/μl in a final volume of 1 ml Tyrode albumin and was performed at 37° C. for 5 min (equilibrium conditions). The competitive assays were conducted using a single concentration of radioligand ([…], 200 000 cpm), in the presence of increasing concentrations of suitable non-labelled ligand. Non-specific binding was determined by the binding of [^125I]LNP 911 in the presence of 100 nM of non-labelled LNP 911 and represented about 10% of total radioactivity when […] of [^125I]LNP 911 were used.
The reaction was halted by rapid vacuum filtration through GF/C fibre glass filters followed by five rapid washings of the filters with 3 ml of ice-cold Tyrode ([…], pH 7.35). Radioactivity was measured using a gamma counter (Wallac 1410).
as §1, §2

[3] = molecular target: I1 receptor (Mus musculus, UniProt Q80TM9); experiment: Competitive binding to [125I]-PIC in membranes of 3T3 adipocytes; design: species or system murine; conditions: 3T3 cell membranes
Procedure: The adipocytes were washed twice with ice-cold PBS, harvested and homogenized in 25 mM Tris-HCl buffer, pH 7.5, 1 mM EDTA. The homogenates were centrifuged at 20,000×g for 15 min at 4° C. and the supernatant stored at −80° C. until use. The residues were re-suspended in 25 mM Tris-HCl buffer, pH 7.5, 1 mM EDTA and stored at −80° C. […]
The reaction was halted by rapid vacuum filtration through GF/B fibre glass filters treated with 0.3% PEI using filtering equipment of Brandel® type, followed by three rapid washings of the filters using 3 ml of ice-cold 50 mM Tris-HCl buffer, pH 7.4. The radioactivity retained on the dried filters was determined using a Minaxi gamma counter (Packard, Meriden, CT, USA). Non-specific binding was determined by [^125I]PIC binding in the presence of 10 μM PIC and represented about 43% of total radioactivity.

[4] = tested on: 3T3-L1 adipocytes; experiment: Secretion of adiponectin by differentiated 3T3-L1 adipocytes (ELISA); format: cell-based, murine
Procedure: 3T3-L1 murine preadipocytes were cultured to confluence at 37° C. in DMEM medium containing 4.5 g/litre of D-glucose, 10% FCS and antibiotics. At confluence, differentiation of the 3T3-L1 adipocytes was initiated through the addition over 48 h of a mixture containing 100 μM methyl-isobutylxanthine, 100 nm dexamethasone and 175 nM insulin. The cells were then passaged every 2-3 days in DMEM, 10% FCS and 175 nM insulin. More than 95% of cells had the phenotype of mature adipocytes 10 days after confluence was reached.
To determine the secretion of adiponectin by mature adipocytes, differentiated 3T3-L1 adipocytes (10 days after confluence) were placed in culture in 12-well plates and washed three times with DMEM, then cultured for 6 h in DMEM alone, in the absence or presence of 3 μM of compound 1. In some wells the antagonist selective for the imidazoline receptors I1, efaroxan, was added (100 μM) 30 min before exposure to compound 1.
The culture medium was then recovered, centrifuged for 3 min at 10 000 g to remove cell contaminants, and the supernatant was stored at −80° C. until use. After two washings in cold PBS, the adipocytes were collected in PBS, homogenized and stored at −80° C. An aliquot of adipocyte homogenate was stored for protein determination. The adiponectin was measured using an ELISA kit following the manufacturer's recommendations. The adiponectin concentration was normalized with the cell protein content.

I1 receptor (Homo sapiens, UniProt Q9Y2I1), sequence (Q9Y2I1 2-1504 limits assumed): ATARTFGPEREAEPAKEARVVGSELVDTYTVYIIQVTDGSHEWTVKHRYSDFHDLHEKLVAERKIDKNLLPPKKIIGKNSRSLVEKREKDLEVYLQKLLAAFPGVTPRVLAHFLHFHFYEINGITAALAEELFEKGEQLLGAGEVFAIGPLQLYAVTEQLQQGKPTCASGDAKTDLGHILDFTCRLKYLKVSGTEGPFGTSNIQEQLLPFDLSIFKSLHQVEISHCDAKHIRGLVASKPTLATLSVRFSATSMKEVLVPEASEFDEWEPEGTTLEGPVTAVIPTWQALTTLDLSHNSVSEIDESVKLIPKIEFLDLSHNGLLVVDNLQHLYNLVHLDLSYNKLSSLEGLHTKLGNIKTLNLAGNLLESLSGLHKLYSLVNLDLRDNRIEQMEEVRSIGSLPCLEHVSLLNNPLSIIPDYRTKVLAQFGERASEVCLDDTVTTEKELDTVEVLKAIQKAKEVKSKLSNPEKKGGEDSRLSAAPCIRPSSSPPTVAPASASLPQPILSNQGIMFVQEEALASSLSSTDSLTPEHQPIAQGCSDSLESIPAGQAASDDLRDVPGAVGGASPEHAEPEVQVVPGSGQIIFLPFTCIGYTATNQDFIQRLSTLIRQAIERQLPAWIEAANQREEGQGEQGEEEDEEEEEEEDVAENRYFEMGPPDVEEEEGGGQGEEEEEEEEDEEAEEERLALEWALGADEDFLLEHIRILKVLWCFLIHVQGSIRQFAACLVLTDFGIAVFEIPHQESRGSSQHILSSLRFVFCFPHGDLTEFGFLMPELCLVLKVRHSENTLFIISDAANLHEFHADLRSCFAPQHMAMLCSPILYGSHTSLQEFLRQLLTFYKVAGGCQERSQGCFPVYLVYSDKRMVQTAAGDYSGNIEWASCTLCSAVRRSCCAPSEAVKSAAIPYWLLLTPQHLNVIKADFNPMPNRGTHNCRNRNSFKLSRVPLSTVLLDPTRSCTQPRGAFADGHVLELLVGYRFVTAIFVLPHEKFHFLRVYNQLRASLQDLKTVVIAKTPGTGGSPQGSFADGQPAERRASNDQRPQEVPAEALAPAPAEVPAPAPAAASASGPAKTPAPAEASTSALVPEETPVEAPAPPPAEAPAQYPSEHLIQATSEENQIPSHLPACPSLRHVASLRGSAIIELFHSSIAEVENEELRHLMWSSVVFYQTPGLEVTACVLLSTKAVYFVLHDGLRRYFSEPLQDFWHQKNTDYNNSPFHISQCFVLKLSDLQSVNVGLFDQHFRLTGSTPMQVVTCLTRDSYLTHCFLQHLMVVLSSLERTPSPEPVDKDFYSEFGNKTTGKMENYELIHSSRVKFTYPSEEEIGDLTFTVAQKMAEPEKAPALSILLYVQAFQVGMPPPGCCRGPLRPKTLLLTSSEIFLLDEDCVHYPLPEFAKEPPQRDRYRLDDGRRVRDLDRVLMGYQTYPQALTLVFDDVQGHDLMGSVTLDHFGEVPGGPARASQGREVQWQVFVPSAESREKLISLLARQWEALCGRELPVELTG
I1 receptor (Mus musculus, UniProt Q80TM9), sequence (Q80TM9 whole entry, looked up): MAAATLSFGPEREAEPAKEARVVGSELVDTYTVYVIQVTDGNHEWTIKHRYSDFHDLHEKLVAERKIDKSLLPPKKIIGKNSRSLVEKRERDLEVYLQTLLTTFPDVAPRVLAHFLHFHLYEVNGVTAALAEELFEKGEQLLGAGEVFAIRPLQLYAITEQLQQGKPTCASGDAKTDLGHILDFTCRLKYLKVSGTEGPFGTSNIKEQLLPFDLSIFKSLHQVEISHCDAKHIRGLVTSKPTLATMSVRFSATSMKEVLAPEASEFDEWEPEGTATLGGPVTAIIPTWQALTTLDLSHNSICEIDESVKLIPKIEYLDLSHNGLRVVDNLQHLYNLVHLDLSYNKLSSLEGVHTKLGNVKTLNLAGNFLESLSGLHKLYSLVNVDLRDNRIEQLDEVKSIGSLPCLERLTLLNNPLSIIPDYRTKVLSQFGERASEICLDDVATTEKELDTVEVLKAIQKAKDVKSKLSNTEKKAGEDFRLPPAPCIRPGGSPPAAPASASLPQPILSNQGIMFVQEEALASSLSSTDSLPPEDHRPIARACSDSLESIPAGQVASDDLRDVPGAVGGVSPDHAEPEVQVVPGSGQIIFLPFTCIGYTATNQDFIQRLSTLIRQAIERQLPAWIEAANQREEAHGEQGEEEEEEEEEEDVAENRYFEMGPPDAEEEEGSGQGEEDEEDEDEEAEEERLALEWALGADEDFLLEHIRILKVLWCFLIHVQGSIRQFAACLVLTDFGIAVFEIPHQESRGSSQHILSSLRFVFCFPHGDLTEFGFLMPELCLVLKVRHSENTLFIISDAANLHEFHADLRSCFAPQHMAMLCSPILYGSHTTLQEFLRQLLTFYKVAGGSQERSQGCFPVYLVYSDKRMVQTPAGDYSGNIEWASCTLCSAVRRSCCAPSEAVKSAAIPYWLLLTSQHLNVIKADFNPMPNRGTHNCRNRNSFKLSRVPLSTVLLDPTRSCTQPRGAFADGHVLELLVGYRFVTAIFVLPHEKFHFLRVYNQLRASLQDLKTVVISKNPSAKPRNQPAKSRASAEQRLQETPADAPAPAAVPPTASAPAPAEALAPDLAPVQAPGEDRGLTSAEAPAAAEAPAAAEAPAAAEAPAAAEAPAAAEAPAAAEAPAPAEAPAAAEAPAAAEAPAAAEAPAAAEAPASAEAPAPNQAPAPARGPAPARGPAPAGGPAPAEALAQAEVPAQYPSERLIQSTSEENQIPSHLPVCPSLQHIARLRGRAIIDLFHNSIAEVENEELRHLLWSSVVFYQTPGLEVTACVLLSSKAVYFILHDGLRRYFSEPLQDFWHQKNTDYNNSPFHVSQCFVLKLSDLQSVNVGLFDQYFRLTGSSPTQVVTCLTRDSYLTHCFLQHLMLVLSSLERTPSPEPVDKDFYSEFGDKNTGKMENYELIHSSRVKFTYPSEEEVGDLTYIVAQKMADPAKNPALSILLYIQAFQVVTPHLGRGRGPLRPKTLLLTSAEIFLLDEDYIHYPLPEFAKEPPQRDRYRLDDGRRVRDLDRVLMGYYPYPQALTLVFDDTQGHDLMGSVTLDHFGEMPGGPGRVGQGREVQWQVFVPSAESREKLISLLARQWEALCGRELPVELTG

Compound | Ki [1] | Ki [2] | other results
CC1CCC(Nc2cccc3c2CCC3)=N1 (stereo not drawn) [Compound 5, Indan-4-yl-(5-methyl-4,5-dihydro-3H-pyrrol-2-yl)-amine hydrochloride] | > 10000 nM | 19 nM | 
CC1CN=C(Nc2ccc(Cl)c3c2CCC3)C1 (stereo not drawn) [Compound 8, (7-Chloro-indan-4-yl)-(4-methyl-4,5-dihydro-3H-pyrrol-2-yl)-amine hydrochloride] | > 10000 nM | 0.22 nM | 
Cc1ccc(NC2=NCC(C)C2)c2c1CCC2 (stereo not drawn) [Compound 9, (7-Methyl-indan-4-yl)-(4-methyl-4,5-dihydro-3H-pyrrol-2-yl)-amine hydrochloride] | > 10000 nM |  | 
CC1CCC(Nc2ccccc2Cl)=N1.Cl (stereo not drawn) [Compound 13, (2-Chlorophenyl)-(5-methyl-4,5-dihydro-3H-pyrrol-2-yl)-amine hydrochloride] | > 10000 nM |  | melting point: 173 to 174 °C
CC1CCC(Nc2ccc(Cl)c3c2CCC3)=N1 (stereo not drawn) [Compound 20, (7-Chloro-indan-4-yl)-(5-methyl-4,5-dihydro-3H-pyrrol-2-yl)-amine hydrochloride] | > 10000 nM | 2.8 nM | 
Clc1cccc(Cl)c1N=C1NCCN1 [clonidine] |  |  | share of total sites with high affinity [3]: 57%
CCC1(C2=NCCN2)Cc2ccccc2O1 (stereo not drawn) [efaroxan] |  |  | secretion of adiponectin, efaroxan alone ([4]; 100 μmol/l, control 212.6±19.1): 175.2±15.5 ng/ml/mg of proteins; secretion of adiponectin, pre-incubation with efaroxan before compound 1 ([4]; efaroxan 100 μmol/l 30 min before compound 1 3 μmol/l, vs. 378±38 with compound 1 alone): 236±19.2 ng/ml/mg of proteins
